The values below come from US11919901B2 (Syndax Pharmaceuticals, Inc., priority 2021, dated 2024).

Molecules are shown by their SMILES.

One data set has as its target Menin-MLL (Homo sapiens (Human), UniProt O00255). Put plainly: Determination of binding constants (Ki) to Menin-MLL (HTRF). To be noted: HTRF, 0.25 nM H-FL-Menin, 3.2 nM FITC-MLL-4-43, 24 hr incubation; for Ki: read-out: Menin-MLL Ki HTRF Assay: Ki. On the technique in general: TR-FRET usually uses a lanthanide donor and a delayed reading to cut background.
In a further data set the target is hERG (Homo sapiens (Human), UniProt Q12809). Put plainly: Patch clamp assay (hERG tail currents, whole-cell). Format: cell-based. To be noted: hERG transfected HEK 293 cells; for hERG % Remaining 30 μM: 30 μM compound; for hERG % Remaining 100 μM: 100 μM compound; for hERG % Remaining 10 μM: 10 μM compound; for hERG % Remaining 1 μM: 1 μM compound; for hERG % Remaining 3 μM: 3 μM compound.
hERG, sequence (Q12809 whole entry): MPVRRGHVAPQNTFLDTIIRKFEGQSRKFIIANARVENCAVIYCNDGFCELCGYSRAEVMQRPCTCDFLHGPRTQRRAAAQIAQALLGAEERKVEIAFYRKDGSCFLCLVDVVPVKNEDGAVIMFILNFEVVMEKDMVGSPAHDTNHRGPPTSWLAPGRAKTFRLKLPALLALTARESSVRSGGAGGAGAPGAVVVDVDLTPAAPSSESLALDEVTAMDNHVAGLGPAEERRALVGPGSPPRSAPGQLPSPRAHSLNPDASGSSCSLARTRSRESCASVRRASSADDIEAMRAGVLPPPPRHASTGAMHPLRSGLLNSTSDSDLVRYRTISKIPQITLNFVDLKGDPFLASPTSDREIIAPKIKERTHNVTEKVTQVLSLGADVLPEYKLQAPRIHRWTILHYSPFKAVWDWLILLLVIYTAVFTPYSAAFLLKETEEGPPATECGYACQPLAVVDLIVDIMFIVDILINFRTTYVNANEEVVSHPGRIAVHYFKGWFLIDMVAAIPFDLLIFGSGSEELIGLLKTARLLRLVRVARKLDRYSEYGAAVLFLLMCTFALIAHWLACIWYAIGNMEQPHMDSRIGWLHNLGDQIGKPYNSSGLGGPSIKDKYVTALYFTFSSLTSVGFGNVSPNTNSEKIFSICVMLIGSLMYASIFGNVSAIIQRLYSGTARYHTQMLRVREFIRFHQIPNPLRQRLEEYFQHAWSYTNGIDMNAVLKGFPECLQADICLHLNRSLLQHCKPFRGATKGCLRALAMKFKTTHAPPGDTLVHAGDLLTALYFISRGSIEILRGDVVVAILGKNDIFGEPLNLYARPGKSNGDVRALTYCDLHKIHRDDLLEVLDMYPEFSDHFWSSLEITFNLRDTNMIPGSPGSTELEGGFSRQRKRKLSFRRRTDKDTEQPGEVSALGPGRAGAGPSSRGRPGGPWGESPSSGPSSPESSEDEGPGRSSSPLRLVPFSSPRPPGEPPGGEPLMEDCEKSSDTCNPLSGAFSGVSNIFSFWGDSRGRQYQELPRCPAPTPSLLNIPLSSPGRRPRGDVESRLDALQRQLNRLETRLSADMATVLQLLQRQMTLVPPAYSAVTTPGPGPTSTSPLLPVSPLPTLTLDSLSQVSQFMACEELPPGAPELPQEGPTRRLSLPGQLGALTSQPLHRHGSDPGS

Menin-MLL, sequence (O00255 whole entry): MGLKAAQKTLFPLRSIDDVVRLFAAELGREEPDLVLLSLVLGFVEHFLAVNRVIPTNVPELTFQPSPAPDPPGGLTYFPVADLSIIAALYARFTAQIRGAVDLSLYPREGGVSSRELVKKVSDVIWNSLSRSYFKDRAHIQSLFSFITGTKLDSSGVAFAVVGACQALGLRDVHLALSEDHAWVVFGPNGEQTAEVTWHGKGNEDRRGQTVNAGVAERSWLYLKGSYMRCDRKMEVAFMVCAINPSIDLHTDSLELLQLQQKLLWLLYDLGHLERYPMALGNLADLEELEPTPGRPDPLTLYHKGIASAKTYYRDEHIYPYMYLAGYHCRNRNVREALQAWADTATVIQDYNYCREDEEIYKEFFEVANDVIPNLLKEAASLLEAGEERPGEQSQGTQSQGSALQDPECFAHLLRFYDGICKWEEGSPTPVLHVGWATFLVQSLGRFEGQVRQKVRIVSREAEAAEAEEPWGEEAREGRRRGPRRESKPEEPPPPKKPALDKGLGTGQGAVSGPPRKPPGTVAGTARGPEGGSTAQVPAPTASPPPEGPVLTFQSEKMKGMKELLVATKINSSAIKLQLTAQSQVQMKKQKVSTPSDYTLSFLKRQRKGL

By Ki is commonly meant a measure of affinity in units of concentration, obtained from inhibition or displacement. As a reminder, the IC50 is the midpoint of a concentration-inhibition curve. As for `CC(C)N(C(=O)c1cc(F)ccc1Oc1cncnc1N1CC2(CCN(C[C@@H]3CC[C@@H](NS(=O)(=O)N(C)C)CO3)CC2)C1)[C@@H]1CCOC1` [Compound 167, 2-((4-(7-(((2S,5R)-5-((N,N-Dimethylsulfamoyl)amino)tetrahydro-2H-pyran-2-yl)methyl)-2,7-diazaspiro[3.5]nonan-2-yl)pyrimidin-5-yl)oxy)-5-fluoro-N-isopropyl-N-((R)-tetrahydrofuran-3-yl)benzamide], the inhibitory constant (Ki) on Menin-MLL is less than 1 nM. In addition, at hERG, the “hERG % Remaining 30 μM” value is on record as “+++ (“+++” means ≥66%)”, the “hERG % Remaining 100 μM” value is “+++ (“+++” means ≥66%)” and the IC50 is no less than 50000 nM.

For the molecule `CC(C)N(C(=O)c1cc(F)ccc1Oc1cncnc1N1CC2(CCN(C[C@@H]3CC[C@@H](NS(=O)(=O)N(C)C(C)C)CO3)CC2)C1)C(C)C` [Compound 89, 5-Fluoro-N,N-diisopropyl-2-((4-(7-(((2S,5R)-5-((N-isopropyl-N-methylsulfamoyl)amino)tetrahydro-2H-pyran-2-yl)methyl)-2,7-diazaspiro[3.5]nonan-2-yl)pyrimidin-5-yl)oxy)benzamide], the Ki on Menin-MLL is less than 1 nM. In addition, the “hERG % Remaining 30 μM” value at hERG is “++ (“++” means ≥33% and <66%)”.

The EC50 is the concentration at which the effect is half-maximal. Low values mean an effect from little substance, high ones a need for much substance. In the case of `CCN(C(=O)c1cc(F)ccc1Oc1cncnc1N1CC2(CCN(C[C@@H]3CC[C@@H](NS(=O)(=O)NC)CO3)CC2)C1)C(C)C` [Compound 76, N-Ethyl-5-fluoro-N-isopropyl-2-((4-(7-(((2S,5R)-5-((N-methylsulfamoyl)amino)tetrahydro-2H-pyran-2-yl)methyl)-2,7-diazaspiro[3.5]nonan-2-yl)pyrimidin-5-yl)oxy)benzamide], at Menin-MLL, the EC50 was less than 50 nM and the inhibition constant Ki was less than 1 nM. For the same molecule, at hERG, the “hERG % Remaining 10 μM” value is on record as “+++ (“+++” means ≥66%)” and the “hERG % Remaining 30 μM” value is given as “+++ (“+++” means ≥66%)”.

`CC(C)N(C(=O)c1cc(F)ccc1Oc1cncnc1N1CC2(CCN(C[C@@H]3CC[C@@H](NS(=O)(=O)N4CCC4)CO3)CC2)C1)C(C)C` [Compound 88, 2-((4-(7-(((2S,5R)-5-(Azetidine-1-sulfonamido)tetrahydro-2H-pyran-2-yl)methyl)-2,7-diazaspiro[3.5]nonan-2-yl)pyrimidin-5-yl)oxy)-5-fluoro-N,N-diisopropylbenzamide]: the Ki on Menin-MLL was less than 1 nM. At hERG, the “hERG % Remaining 30 μM” value was “+++ (“+++” means ≥66%)”.

As to `CCNS(=O)(=O)N[C@@H]1CC[C@@H](CN2CCC3(CC2)CN(c2ncnnc2Oc2ccc(F)cc2C(=O)N(C(C)C)C(C)C)C3)OC1` [Compound 198], on Menin-MLL, the inhibitory constant (Ki) is less than 1 nM. Further, the “hERG % Remaining 30 μM” value at hERG is given as “+++ (“+++” means ≥66%)”.

Take `CC(C)N(C(=O)c1cc(F)ccc1Oc1cncnc1N1CC2(CCN(C[C@@H]3CC[C@@H](NS(=O)(=O)N4CCC[C@@H]4C)CO3)CC2)C1)C(C)C` [Compound 202, 5-Fluoro-N,N-diisopropyl-2-((4-(7-(((2S,5R)-5-(((S)-2-methylpyrrolidine)-1-sulfonamido)tetrahydro-2H-pyran-2-yl)methyl)-2,7-diazaspiro[3.5]nonan-2-yl)pyrimidin-5-yl)oxy)benzamide]: the Ki on Menin-MLL was less than 1 nM. The “hERG % Remaining 30 μM” value at hERG is recorded as “+ (“+” means <33%)”.

Turning to `CC(C)N(C(=O)c1cc(F)ccc1Oc1cncnc1N1CC2(CCN(C[C@@H]3CC[C@@H](NS(=O)(=O)N(C)C)CO3)CC2)C1)C1CC1` [Compound 93, N-Cyclopropyl-2-((4-(7-(((2S,5R)-5-((N,N-dimethylsulfamoyl)amino)tetrahydro-2H-pyran-2-yl)methyl)-2,7-diazaspiro[3.5]nonan-2-yl)pyrimidin-5-yl)oxy)-5-fluoro-N-isopropylbenzamide], at Menin-MLL, the EC50 is less than 50 nM and the Ki is less than 1 nM. On hERG, the “hERG % Remaining 1 μM” value was “+++ (“+++” means ≥66%)”; the “hERG % Remaining 3 μM” value was “+++ (“+++” means ≥66%)”; the “hERG % Remaining 10 μM” value is listed as “+++ (“+++” means ≥66%)”; the “hERG % Remaining 30 μM” value is “++ (“++” means ≥33% and <66%)”. In addition, at hERG, the “hERG % Remaining 100 μM” value was “+ (“+” means <33%)” and the IC50 is no less than 50000 nM.

`C[C@@H]1COC[C@H](C)N1C(=O)c1cc(F)ccc1Oc1cncnc1N1CC2(CCN(C[C@@H]3CC[C@@H](NS(=O)(=O)c4ccccc4)CO3)CC2)C1` [Compound 130, N-((3R,6S)-6-((2-(5-(2-((3S,5R)-3,5-Dimethylmorpholine-4-carbonyl)-4-fluorophenoxy)pyrimidin-4-yl)-2,7-diazaspiro[3.5]nonan-7-yl)methyl)tetrahydro-2H-pyran-3-yl)benzenesulfonamide]: on Menin-MLL, the EC50 was less than 50 nM and the Ki is less than 1 nM. Moreover, on hERG, the “hERG % Remaining 10 μM” value is listed as “+++ (“+++” means ≥66%)”; the “hERG % Remaining 30 μM” value was “++ (“++” means ≥33% and <66%)”.

On to `C[C@@H]1COC[C@H](C)N1C(=O)c1cc(F)ccc1Oc1cncnc1N1CC2(CCN(C[C@@H]3CC[C@@H](NS(=O)(=O)N4CCC4)CO3)CC2)C1` [Compound 161, N-((3R,6S)-6-((2-(5-(2-((3R,5S)-3,5-Dimethylmorpholine-4-carbonyl)-4-fluorophenoxy)pyrimidin-4-yl)-2,7-diazaspiro[3.5]nonan-7-yl)methyl)tetrahydro-2H-pyran-3-yl)azetidine-1-sulfonamide], for which the Ki at Menin-MLL is less than 1 nM. Moreover, the “hERG % Remaining 30 μM” value at hERG is recorded as “+++ (“+++” means ≥66%)”.

`CCN(C(=O)c1cc(F)ccc1Oc1cncnc1N1CC2(CCN(C[C@H]3CC[C@H](NS(=O)(=O)CC)CC3)CC2)C1)C(C)C` [SNDX-5613]: at hERG, the “hERG % Remaining 1 μM” value is “+++ (“+++” means ≥66%)”; the “hERG % Remaining 3 μM” value is recorded as “+++ (“+++” means ≥66%)”; the “hERG % Remaining 10 μM” value is “++ (“++” means ≥33% and <66%)”; the “hERG % Remaining 30 μM” value is “++ (“++” means ≥33% and <66%)”. Also, on hERG, the “hERG % Remaining 100 μM” value was “+ (“+” means <33%)” and the IC50 was less than 25000 nM.

As for `CCS(=O)(=O)N[C@@H]1CC[C@@H](CN2CCC3(CC2)CN(c2ncncc2Oc2ccc(F)cc2C(=O)N(C(C)C)C2CC(F)C2)C3)OC1` (stereo partly drawn) [Compound 244, 2-((4-(7-(((2S,5R)-5-(ethylsulfonamido)tetrahydro-2H-pyran-2-yl)methyl)-2,7-diazaspiro[3.5]nonan-2-yl)pyrimidin-5-yl)oxy)-5-fluoro-N-((1s,3s)-3-fluorocyclobutyl)-N-isopropylbenzamide], at hERG, the “hERG % Remaining 10 μM” value is on record as “+++ (“+++” means ≥66%)”; the “hERG % Remaining 30 μM” value is “++ (“++” means ≥33% and <66%)”.

In the case of `CC(C)N(C(=O)c1cc(F)ccc1Oc1cncnc1N1CC2(CCN(C[C@@H]3CC[C@@H](NS(C)(=O)=O)CO3)CC2)C1)C1CC(F)(F)C1` [Compound 112, N-(3,3-Difluorocyclobutyl)-5-fluoro-N-isopropyl-2-((4-(7-(((2S,5R)-5-(methylsulfonamido)tetrahydro-2H-pyran-2-yl)methyl)-2,7-diazaspiro[3.5]nonan-2-yl)pyrimidin-5-yl)oxy)benzamide], at Menin-MLL, the EC50 is less than 50 nM and the Ki is less than 1 nM.

For the molecule `CCN(C(=O)c1cc(F)ccc1Oc1cncnc1N1CC2(CCN(C[C@@H]3CC[C@@H](NS(=O)(=O)CCOC)CO3)CC2)C1)C(C)C` [Compound 8, N-ethyl-5-fluoro-N-isopropyl-2-((4-(7-(((2S,5R)-5-((2-methoxyethyl)sulfonamido)tetrahydro-2H-pyran-2-yl)methyl)-2,7-diazaspiro[3.5]nonan-2-yl)pyrimidin-5-yl)oxy)benzamide], at Menin-MLL, the EC50 was less than 50 nM and the Ki was less than 1 nM.

For `C[C@@H]1COC[C@H](C)N1C(=O)c1cc(F)ccc1Oc1cncnc1N1CC2(CCN(C[C@@H]3CC[C@@H](NS(=O)(=O)NC4CC4)CO3)CC2)C1` [Compound 163, N-[(3R,6S)-6-{[2-(5-{2-[(3R,5S)-3,5-Dimethylmorpholine-4-carbonyl]-4-fluorophenoxy}pyrimidin-4-yl)-2,7-diazaspiro[3.5]nonan-7-yl]methyl}oxan-3-yl](cyclopropylamino)sulfonamide], at Menin-MLL, the Ki is less than 1 nM.

Turning to `CC(C)N(C(=O)c1cc(F)ccc1Oc1cncnc1N1CC2(CCN(C[C@@H]3CC[C@@H](NS(=O)(=O)N4CCC[C@H]4C)CO3)CC2)C1)C1CCOC1` (stereo partly drawn) [Compound 207, 5-Fluoro-N-isopropyl-2-((4-(7-(((2S,5R)-5-(((R)-2-methylpyrrolidine)-1-sulfonamido)tetrahydro-2H-pyran-2-yl)methyl)-2,7-diazaspiro[3.5]nonan-2-yl)pyrimidin-5-yl)oxy)-N-((S)-tetrahydrofuran-3-yl)benzamide], at Menin-MLL, the Ki is less than 1 nM.

Consider `CC(C)N(C(=O)c1cc(F)ccc1Oc1cncnc1N1CC2(CCN(C[C@@H]3CC[C@@H](NS(C)(=O)=O)CO3)CC2)C1)[C@@H]1CCOC1` [Compound 166, 5-Fluoro-N-isopropyl-2-((4-(7-(((2S,5R)-5-(methylsulfonamido)tetrahydro-2H-pyran-2-yl)methyl)-2,7-diazaspiro[3.5]nonan-2-yl)pyrimidin-5-yl)oxy)-N-((R)-tetrahydrofuran-3-yl)benzamide], for which, on Menin-MLL, the Ki was less than 1 nM.

On to `Cc1nc(S(=O)(=O)N[C@@H]2CC[C@@H](CN3CCC4(CC3)CN(c3ncncc3Oc3ccc(F)cc3C(=O)N3[C@H](C)COC[C@@H]3C)C4)OC2)cs1` [Compound 131, N-((3R,6S)-6-((2-(5-(2-((3S,5R)-3,5-Dimethylmorpholine-4-carbonyl)-4-fluorophenoxy)pyrimidin-4-yl)-2,7-diazaspiro[3.5]nonan-7-yl)methyl)tetrahydro-2H-pyran-3-yl)-2-methylthiazole-4-sulfonamide], for which, on Menin-MLL, the Ki was less than 1 nM.

Take `CC(C)N(C(=O)c1cc(F)ccc1Oc1cncnc1N1CC2(CCN(C[C@@H]3CC[C@@H](NS(=O)(=O)C4CC4)CO3)CC2)C1)C1COC1` [Compound 247, 2-((4-(7-(((2S,5R)-5-(Cyclopropanesulfonamido)tetrahydro-2H-pyran-2-yl)methyl)-2,7-diazaspiro[3.5]nonan-2-yl)pyrimidin-5-yl)oxy)-5-fluoro-N-isopropyl-N-(oxetan-3-yl)benzamide]: at Menin-MLL, the EC50 is less than 50 nM and the Ki is less than 1 nM.
